Results on 22 compounds are retold here after ChEMBL document CHEMBL3244293, “Antiallergic activity of some 9H-xanthen-9-one-2-carboxylic acids” (J Med Chem, 1978).

Data set [1] is described as follows: 1-Octanol-citrate buffer partition coefficient, log P of the compound at pH 4.0 by UV spectrometry. In kind it is physicochemical.
In data set [2] the test system is Rattus norvegicus. The experiment in a line: Antiallergic activity in anti-Nippostrongylus brasiliensis homocytotropic antibody-injected Sprague-Dawley rat assessed as inhibition of passive cutaneous anaphylaxis reaction at 10 mg/kg, ip administered 15 mins prior to worm extract antigen challenge measured 45 mins following antigen challenge by Evans blue dye staining. In kind it is functional. The note with it: route intraperitoneal; for inhibition in vivo at 10 mg/kg: Rattus norvegicus, Sprague-Dawley, ip.

For data set [3], the system named is Rattus norvegicus. In words: Antiallergic activity in anti-Nippostrongylus brasiliensis homocytotropic antibody-injected Sprague-Dawley rat assessed as inhibition of passive cutaneous anaphylaxis reaction at 25 mg/kg, po administered 8 mins prior to worm extract antigen challenge measured 45 mins following antigen challenge by Evans blue dye staining. The data set is classed as functional.

The subject of data set [4] is Rattus norvegicus. The experiment in a line: Antiallergic activity in anti-Nippostrongylus brasiliensis homocytotropic antibody-injected Sprague-Dawley rat assessed as inhibition of passive cutaneous anaphylaxis reaction at 5 mg/kg, ip administered 15 mins prior to worm extract antigen challenge measured 45 mins following antigen challenge by Evans blue dye staining. The data set is classed as functional. Particulars: route intraperitoneal.

The structures appear in SMILES notation.

A word on the logD: it is lipophilicity at a set pH, counting ionised and neutral species. A low value points to a more hydrophilic compound. The inhibition in vivo is the drop in the measured response relative to a control, in per cent. In turn, `CSCC(O)COc1ccc2oc3ccc(C(=O)O)cc3c(=O)c2c1` (stereo not given) displayed a pH-dependent lipophilicity (logD) in data set [1] of 2.81. In data set [2], the inhibition in vivo at 10 mg/kg stood at 71% and the “log(%)” value was 1.85. In data set [3], the inhibition in vivo at 25 mg/kg was determined as 48%.

As for `CC(C)SCC(O)COc1ccc2oc3ccc(C(=O)O)cc3c(=O)c2c1` (stereo not given), the logD in data set [1] is 3.06. Further, in data set [2], the inhibition in vivo at 10 mg/kg worked out at 38% and the “log(%)” value is recorded as 1.54.

In the case of `O=C(O)c1ccc2oc3ccc(OCC(O)CSc4ccc(Cl)c(Cl)c4)cc3c(=O)c2c1` (stereo not given), in data set [4], the inhibition in vivo at 5 mg/kg is 7%.

Consider `O=C(O)c1ccc2oc3ccc(OCCO)cc3c(=O)c2c1`, for which the inhibition in vivo at 10 mg/kg in data set [2] amounted to 100%. Further, in data set [3], the inhibition in vivo at 25 mg/kg turned out to be 100%. Also, the inhibition in vivo at 5 mg/kg in data set [4] turned out to be 100%.

For `O=C(O)c1ccc2oc3ccc(OCC(O)C[S+]([O-])c4ccccc4)cc3c(=O)c2c1` (stereo not given), in data set [4], the inhibition in vivo at 5 mg/kg was determined as 42%.

As for `O=C(O)c1ccc2oc3ccc(OCC(O)COCCO)cc3c(=O)c2c1` (stereo not given), in data set [1], the logD came to 2.31. In addition, in data set [2], the inhibition in vivo at 10 mg/kg came out at 77% and the “log(%)” value came to 1.89.

In data set [1], `O=C(O)c1ccc2oc3ccc(OCC(O)CSc4ccccc4)cc3c(=O)c2c1` (stereo not given) showed a logD of 3.8. In data set [2], the inhibition in vivo at 10 mg/kg was 100% and the “log(%)” value amounted to 2. Moreover, the inhibition in vivo at 25 mg/kg in data set [3] was 22%. Also, the inhibition in vivo at 5 mg/kg in data set [4] was determined as 88%.

With `O=C(O)c1ccc2oc3ccc(OCC(O)CO)cc3c(=O)c2c1` (stereo not given), the logD in data set [1] amounted to 2.33. Also, in data set [2], the inhibition in vivo at 10 mg/kg was 78% and the “log(%)” value turned out to be 1.89. Also, the inhibition in vivo at 25 mg/kg in data set [3] is 19%.

As to `O=C(O)c1ccc2oc3ccc(OCC(O)CSc4ccc(F)cc4)cc3c(=O)c2c1` (stereo not given), in data set [4], the inhibition in vivo at 5 mg/kg was determined as 38%.

Turning to `COCC(O)COc1ccc2oc3ccc(C(=O)O)cc3c(=O)c2c1` (stereo not given), in data set [1], the logD came out at 2.13. For the same compound, in data set [2], the inhibition in vivo at 10 mg/kg turned out to be 29% and the “log(%)” value is listed as 1.46.

Regarding `O=C(O)c1ccc2oc3ccc(OCC(O)COCC(F)(F)F)cc3c(=O)c2c1` (stereo not given), the logD in data set [1] came out at 3.14. Further, in data set [2], the inhibition in vivo at 10 mg/kg came to 100% and the “log(%)” value stood at 2. Also, in data set [3], the inhibition in vivo at 25 mg/kg is 0%.

`O=C(O)c1ccc2oc3ccc(OCC(O)CSC45CC6CC(CC(C6)C4)C5)cc3c(=O)c2c1` (stereo not given): the logD in data set [1] turned out to be 2.58. In data set [2], the inhibition in vivo at 10 mg/kg was 16% and the “log(%)” value was determined as 1.2.

Consider `CCCCCCCSCC(O)COc1ccc2oc3ccc(C(=O)O)cc3c(=O)c2c1` (stereo not given), for which the pH-dependent lipophilicity (logD) in data set [1] turned out to be 2.81. In data set [2], the inhibition in vivo at 10 mg/kg stood at 17% and the “log(%)” value worked out at 1.23.

`O=C(O)c1ccc2oc3ccc(OCC(O)CSC4CCCCC4)cc3c(=O)c2c1` (stereo not given) registered a logD in data set [1] of 2.95. Also, in data set [2], the inhibition in vivo at 10 mg/kg is 39% and the “log(%)” value came to 1.59.

On to `O=C(O)c1ccc2oc3ccc(OCC(O)CSc4ccc(Cl)cc4)cc3c(=O)c2c1` (stereo not given), for which the inhibition in vivo at 5 mg/kg in data set [4] worked out at 37%.

In the case of `COCCOCC(O)COc1ccc2oc3ccc(C(=O)O)cc3c(=O)c2c1` (stereo not given), in data set [1], the logD came to 2.08. In data set [2], the inhibition in vivo at 10 mg/kg was found to be 99% and the “log(%)” value came out at 2. Further, the inhibition in vivo at 25 mg/kg in data set [3] worked out at 15%.

Compound `C[S+]([O-])CC(O)COc1ccc2oc3ccc(C(=O)O)cc3c(=O)c2c1` (stereo not given) gave a logD in data set [1] of 1.36. In data set [2], the inhibition in vivo at 10 mg/kg worked out at 100% and the “log(%)” value was 2. Besides, the inhibition in vivo at 25 mg/kg in data set [3] was 0%.

For `O=C(O)c1ccc2oc3ccc(OCC(O)CSCCO)cc3c(=O)c2c1` (stereo not given), the logD in data set [1] was determined as 2.32. In addition, in data set [2], the inhibition in vivo at 10 mg/kg was 100% and the “log(%)” value is 2. Also, the inhibition in vivo at 25 mg/kg in data set [3] worked out at 0%.

With `O=C(O)c1ccc2oc3ccc(OCC(O)CSc4ccc(Br)cc4)cc3c(=O)c2c1` (stereo not given), in data set [4], the inhibition in vivo at 5 mg/kg worked out at 14%.

`CC(C)(C)SCC(O)COc1ccc2oc3ccc(C(=O)O)cc3c(=O)c2c1` (stereo not given) registered a logD in data set [1] of 2.83. Besides, in data set [2], the inhibition in vivo at 10 mg/kg stood at 83% and the “log(%)” value was 1.92.

With `O=C(O)c1cc(=O)c2c(OCC(O)COc3cccc4oc(C(=O)O)cc(=O)c34)cccc2o1` [CROMOLYN SODIUM], in data set [2], the inhibition in vivo at 10 mg/kg came to 89%.

For the compound `COc1ccc(SCC(O)COc2ccc3oc4ccc(C(=O)O)cc4c(=O)c3c2)cc1` (stereo not given), the inhibition in vivo at 5 mg/kg in data set [4] amounted to 51%.
